The values below come from US20180064712A1, “METHODS OF REDUCING IMMUNE CELL ACTIVATION AND USES THEREOF” (Washington University, priority 2016, published 2018).

For test [1], the system named is IL-15 TM cells. Description: EM analysis of mitochondrial cristae after stimulation with or without Mdivi-1. It counts as cell-based, mice. Particulars: IL-15 TM cells activated with αCD3/CD28-conjugated beads or PMA and ionomycin, presence or absence of Mdivi-1. The text has this: (§1) FIG. 6A, FIG. 6B, FIG. 6C, FIG. 6D, FIG. 6E, FIG. 6F, FIG. 6G, FIG. 6H, FIG. 6I, FIG. 6J, FIG. 6K, FIG. 6L, FIG. 6M, and FIG. 6N depict graphs and images showing that mitochondrial cristae remodeling signals metabolic pathway engagement. (FIG. 6A) Basal ECAR of OT-I Opa1^+/+ and Opa1^−/− IL-2 TE cells (left) and day 7 TE cells isolated ex vivo after adoptive transfer from LmOVA infection (right). Data combined from 2-3 experiments (*p=0.0412, ***p<0.0001). (FIG. 6B) OCR at baseline and after indicated drugs, representative of 2 experiments shown as mean±SEM, and (FIG. 6C) D-Glucose-^13C1,2 trace analysis of OT-I Opa1^+/+ and Opa1^−/− IL-2 TE cells. Each lane represents separate mice with a technical replicate. (FIG. 6D) EM analysis of mitochondrial cristae from TE and TM cells isolated after LmOVA infection and (FIG. 6E) in vitro cultured IL-2 TE and TM cells. Data representative of 2 experiments, scale bar=0.25 μm. […] (FIG. 6K) IL-15 TM cell, (FIG. 6L, FIG. 6M) bone marrow-derived dendritic cell (BM-DCs) and macrophage (BM-Macs) % ECAR measured at baseline and after media, αCD3/CD28-conjugated bead, LPS, or LPS+IFN-γ injection as indicated. […]
To more thoroughly examine this idea, we assessed cristae morphology in TE and TM cells by EM following TCR stimulation. […]

The subject of test [2] is IL-15 TM cells. Description: ECAR after αCD3/28 bead stimulation with or without Mdivi-1. The conditions noted are these: αCD3/28-conjugated beads, 10 μM Mdivi-1 vs control. Format: cell-based, mice.
Source text: as §1, with “replicate.” for “replicate. (FIG. 6D) EM analysis of mitochondrial cristae from TE and TM cells isolated after LmOVA infection and (FIG. 6E) in vitro cultured IL-2 TE and TM cells. Data representative of 2 experiments, scale bar=0.25 μm.”
(§2) To more directly test this idea, we assessed ECAR of IL-15 TM cells that were stimulated with αCD3/28-conjugated beads in the presence or absence of Mdivi-1. […] We stimulated bone marrow derived dendritic cells (BM-DCs) and macrophages (BM-Macs) with lipolysaccharide (LPS) with or without interferon (IFN)-γ in the presence or absence of Mdivi-1 and measured ECAR. […]

Test [3] deals with bone marrow derived dendritic cells (BM-DCs). In words: ECAR after LPS stimulation with or without Mdivi-1, dendritic cells. Format: cell-based, mice. Particulars: BM-DCs following stimulation with LPS, 10 μM Mdivi-1.
Source text: as §1, with “replicate.” for “replicate. (FIG. 6D) EM analysis of mitochondrial cristae from TE and TM cells isolated after LmOVA infection and (FIG. 6E) in vitro cultured IL-2 TE and TM cells. Data representative of 2 experiments, scale bar=0.25 μm.”
as §2

In test [4] the test system is Bone marrow derived macrophages (BM-Macs). In words: ECAR after LPS with or without IFN-γ stimulation with or without Mdivi-1, macrophages. It counts as cell-based, mice. Particulars: BM-Macs following stimulation with LPS with or without IFN-γ, 10 μM Mdivi-1.
Source text: as §1, with “replicate.” for “replicate. (FIG. 6D) EM analysis of mitochondrial cristae from TE and TM cells isolated after LmOVA infection and (FIG. 6E) in vitro cultured IL-2 TE and TM cells. Data representative of 2 experiments, scale bar=0.25 μm.”
as §2

A further test deals with BM-Macs. In words: intracellular Nos2 protein by flow cytometry. The conditions noted are these: stimulated BM-Macs, Mdivi-1 treated. It counts as cell-based, mice. (In flow cytometry, cells or beads pass a laser one at a time.)
The next test concerns mitochondrial fission. The conditions noted are these: as disclosed in Cassidy-Stone et al. Developmental Cell 2008; cited from earlier work.

Consider `COc1cc(-n2c(=S)[nH]c3ccccc3c2=O)c(Cl)cc1Cl` [Mdivi-1], for which, in the test with IL-15 TM cells [1], the “cristae morphology by EM” value is “intermembrane space widening over time in control cells in comparison to drug treated cells”. In addition, the “aerobic glycolysis (ECAR)” value is “did not robustly increase aerobic glycolysis” in the test on IL-15 TM cells [2], “curtailed” in test [3] and “curtailed” in test [4]. For the same compound, the “nitric oxide synthase 2 (Nos2) protein expression” value with BM-Macs is listed as “significantly decreased”. Besides, the “efficacy relative to Mdivi-1 as mitochondrial fission inhibitor” value in the test with mitochondrial fission was “full efficacy”.
